Laboratory results published in the NIST ThermoML archive (doi:10.1021/acs.jced.5b00209).
± gives the expanded uncertainty stated by the source.

Details: 101.33 kPa, Liquid; for viscosity: Capillary tube (Ostwald / Ubbelohde) method; for mass density: Pycnometric method

C[S+](C)[O-] [dimethyl sulfoxide]
Details | mass density [kg/m3] | viscosity [mPa·s]
298.15 K | 1096.8 ± 0.5 | 2.01 ± 0.08
303.15 K | 1091.4 ± 0.5 | 1.82 ± 0.07
308.15 K | 1086.1 ± 0.5 | 1.65 ± 0.07
313.15 K | 1081.2 ± 0.5 | 1.54 ± 0.06
318.15 K | 1075.3 ± 0.6 | 1.37 ± 0.06
